Assay [1] has as its system LPS-stimulated human peripheral blood mononuclear cells (IL1-β). It is filed as cell-based. The note with it: Table 12, cells stimulated with 10 ng/ml LPS; for IL1β Production: LPS alone 1313 (HH2 derivatives), 1927 (1018 derivatives), 2455 (1002 and hybrid peptides) pg/ml.
For assay [2], the system named is methicillin resistant Staphylococcus aureus (MRSA) biofilm. The following applies: approximate peptide concentration […] (around 3 μg/ml); compared to untreated samples. In outline: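 Static biofilm assay: 1/100 dilutions of overnight cultures grown in BM2 medium (pH 7, glucose, Casamino Acids) or Luria Broth with peptide added at time zero. After 22–46 h, adherent biofilm was stained with crystal violet and read at 595 nm. Some peptides were also tested on K. pneumoniae under flow in a Bioflux system.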

In assay [3] the test system is human peripheral blood mononuclear cells (MCP-1). As to the kind of experiment: SPOT-synthesized derivative screen: production of chemokine MCP-1. The following applies: Table 12, No LPS, human PBMC, peptide at ~18-24 μM; for MCP1: background subtracted 139 (HH2 derivatives), 170 (1018 derivatives), 242 (1002 and hybrid peptides) pg/ml. In kind it is cell-based. In outline:
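PBMC from heparinized healthy-donor venous blood, Ficoll-separated, cultured at 0.75 to 1×10^6 cells/ml, 37 °C, 5% CO2, under the treatment regimens. MCP-1 in cell-free supernatants measured by capture ELISA.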

Ends that are not written are not given here.

“1018-W9: single substituted 1018 peptide (VRLIVAVRWWRR-NH2) [Peptide 1018-W9]”: in assay [1], the “Fold change in IL1β relative to no peptide LPS stimulated cells” value was 0.10 and the “IL1β Production” value was determined as 127 pg/mL. For the same substance, the “% Biofilm inhibition” value in assay [2] amounted to 69%. In addition, in assay [3], the “Fold increase in MCP1 cf. untreated cells” value (shortened to “Fold increase”) turned out to be 2.5 and the “MCP1” value came to 247 pg/mL.

Take “1018-W11: single substituted 1018 peptide (VRLIVAVRIWWR-NH2) [Peptide 1018-W11]”: in assay [1], the “Fold change in IL1β relative to no peptide LPS stimulated cells” value was determined as 0.62 and the “IL1β Production” value was 814 pg/mL. Besides, the “% Biofilm inhibition” value in assay [2] is recorded as 53%. For the same substance, in assay [3], the “Fold increase” value is 0.8 and the “MCP1” value is -28 pg/mL.

Regarding “1018-W12: single substituted 1018 peptide (VRLIVAVRIWRW-NH2) [Peptide 1018-W12]”, in assay [1], the “Fold change in IL1β relative to no peptide LPS stimulated cells” value was found to be 0.34 and the “IL1β Production” value came to 441 pg/mL. Besides, the “% Biofilm inhibition” value in assay [2] is listed as 65%. Also, in assay [3], the “Fold increase” value came to 1.5 and the “MCP1” value was found to be 79 pg/mL.

Take “HH2-A1: single substituted HH2 peptide (AQLRIRVAVIRA-NH2)”: in assay [1], the “Fold change in IL1β relative to no peptide LPS stimulated cells” value is 1.21 and the “IL1β Production” value stood at 1587 pg/mL. For the same substance, the “% Biofilm inhibition” value in assay [2] came out at 56%. For the same substance, in assay [3], the “Fold increase” value is listed as 14 and the “MCP1” value was determined as 2254 pg/mL.

“HH2-A2: single substituted HH2 peptide (VALRIRVAVIRA-NH2)”: in assay [1], the “Fold change in IL1β relative to no peptide LPS stimulated cells” value worked out at 1.23 and the “IL1β Production” value was 1612 pg/mL. Besides, the “% Biofilm inhibition” value in assay [2] came to 69%. For the same substance, in assay [3], the “Fold increase” value came to 3.8 and the “MCP1” value came out at 471 pg/mL.

As to “HH2-A3: single substituted HH2 peptide (VQARIRVAVIRA-NH2)”, in assay [1], the “Fold change in IL1β relative to no peptide LPS stimulated cells” value turned out to be 1.44 and the “IL1β Production” value came out at 1886 pg/mL. The “% Biofilm inhibition” value in assay [2] turned out to be 52%. For the same substance, in assay [3], the “Fold increase” value is on record as 1.3 and the “MCP1” value worked out at 59 pg/mL.

Turning to “HH2-A4: single substituted HH2 peptide (VQLAIRVAVIRA-NH2)”, in assay [1], the “Fold change in IL1β relative to no peptide LPS stimulated cells” value came out at 1.52 and the “IL1β Production” value was determined as 2000 pg/mL. Also, the “% Biofilm inhibition” value in assay [2] was determined as 42%. In assay [3], the “Fold increase” value was found to be 5.0 and the “MCP1” value turned out to be 672 pg/mL.

As for “HH2-A5: single substituted HH2 peptide (VQLRARVAVIRA-NH2)”, in assay [1], the “Fold change in IL1β relative to no peptide LPS stimulated cells” value was determined as 1.60 and the “IL1β Production” value came to 2095 pg/mL. Also, the “% Biofilm inhibition” value in assay [2] amounted to 45%. In assay [3], the “Fold increase” value is 1.3 and the “MCP1” value worked out at 59 pg/mL.

As to “HH2-A6: single substituted HH2 peptide (VQLRIAVAVIRA-NH2)”, in assay [1], the “Fold change in IL1β relative to no peptide LPS stimulated cells” value worked out at 1.06 and the “IL1β Production” value was 1391 pg/mL. The “% Biofilm inhibition” value in assay [2] was found to be 41%. For the same substance, in assay [3], the “Fold increase” value is listed as 1.8 and the “MCP1” value was determined as 137 pg/mL.

Turning to “HH2-A7: single substituted HH2 peptide (VQLRIRAAVIRA-NH2)”, in assay [1], the “Fold change in IL1β relative to no peptide LPS stimulated cells” value amounted to 1.30 and the “IL1β Production” value stood at 1713 pg/mL. For the same substance, in assay [2], the “% Biofilm inhibition” value is 57%. In addition, in assay [3], the “Fold increase” value was determined as 1.3 and the “MCP1” value was 59 pg/mL.

For the substance “HH2-A9: single substituted HH2 peptide (VQLRIRVAAIRA-NH2)”, in assay [1], the “Fold change in IL1β relative to no peptide LPS stimulated cells” value came out at 1.46 and the “IL1β Production” value was 1923 pg/mL. The “% Biofilm inhibition” value in assay [2] is reported as 51%. In assay [3], the “Fold increase” value was 1.9 and the “MCP1” value turned out to be 157 pg/mL.

For the substance “HH2-A10: single substituted HH2 peptide (VQLRIRVAVARA-NH2)”, in assay [1], the “Fold change in IL1β relative to no peptide LPS stimulated cells” value was 1.70 and the “IL1β Production” value was 2234 pg/mL. Besides, the “% Biofilm inhibition” value in assay [2] was 53%. In addition, in assay [3], the “Fold increase” value worked out at 2.5 and the “MCP1” value turned out to be 258 pg/mL.

For “HH2-A11: single substituted HH2 peptide (VQLRIRVAVIAA-NH2)”, in assay [1], the “Fold change in IL1β relative to no peptide LPS stimulated cells” value turned out to be 1.60 and the “IL1β Production” value is 2105 pg/mL. For the same substance, the “% Biofilm inhibition” value in assay [2] is given as 64%. Moreover, in assay [3], the “Fold increase” value is 5.9 and the “MCP1” value worked out at 833 pg/mL.

As to “HH2-G1: single substituted HH2 peptide (GQLRIRVAVIRA-NH2)”, in assay [1], the “Fold change in IL1β relative to no peptide LPS stimulated cells” value was 1.17 and the “IL1β Production” value amounted to 1533 pg/mL. Besides, in assay [2], the “% Biofilm inhibition” value is listed as 65%. For the same substance, in assay [3], the “Fold increase” value is 1.9 and the “MCP1” value turned out to be 157 pg/mL.

Regarding “HH2-G2: single substituted HH2 peptide (VGLRIRVAVIRA-NH2)”, in assay [1], the “Fold change in IL1β relative to no peptide LPS stimulated cells” value is on record as 1.07 and the “IL1β Production” value is 1400 pg/mL. The “% Biofilm inhibition” value in assay [2] is recorded as 66%. Also, in assay [3], the “Fold increase” value came out at 3.8 and the “MCP1” value was 471 pg/mL.

“HH2-G3: single substituted HH2 peptide (VQGRIRVAVIRA-NH2)”: in assay [1], the “Fold change in IL1β relative to no peptide LPS stimulated cells” value came out at 1.29 and the “IL1β Production” value amounted to 1687 pg/mL. Moreover, the “% Biofilm inhibition” value in assay [2] is listed as 21%. Moreover, in assay [3], the “Fold increase” value worked out at 1.7 and the “MCP1” value turned out to be 117 pg/mL.

For the substance “HH2-G4: single substituted HH2 peptide (VQLGIRVAVIRA-NH2)”, in assay [1], the “Fold change in IL1β relative to no peptide LPS stimulated cells” value stood at 1.21 and the “IL1β Production” value is 1582 pg/mL. In addition, the “% Biofilm inhibition” value in assay [2] is on record as 40%. Also, in assay [3], the “Fold increase” value turned out to be 148 and the “MCP1” value is 25045 pg/mL.

Regarding “HH2-G5: single substituted HH2 peptide (VQLRGRVAVIRA-NH2)”, in assay [1], the “Fold change in IL1β relative to no peptide LPS stimulated cells” value was 1.27 and the “IL1β Production” value turned out to be 1672 pg/mL. Besides, the “% Biofilm inhibition” value in assay [2] was found to be 34%. Also, in assay [3], the “Fold increase” value was 2.9 and the “MCP1” value came out at 321 pg/mL.

With “HH2-G6: single substituted HH2 peptide (VQLRIGVAVIRA-NH2)”, in assay [1], the “Fold change in IL1β relative to no peptide LPS stimulated cells” value is given as 1.08 and the “IL1β Production” value is 1423 pg/mL. The “% Biofilm inhibition” value in assay [2] came to 33%. For the same substance, in assay [3], the “Fold increase” value amounted to 8.6 and the “MCP1” value came out at 1287 pg/mL.

On to “HH2-G7: single substituted HH2 peptide (VQLRIRGAVIRA-NH2)”, for which, in assay [1], the “Fold change in IL1β relative to no peptide LPS stimulated cells” value is recorded as 1.02 and the “IL1β Production” value came to 1344 pg/mL. Also, the “% Biofilm inhibition” value in assay [2] was found to be 33%. In addition, in assay [3], the “Fold increase” value is 1.5 and the “MCP1” value stood at 78 pg/mL.

Turning to “HH2-G8: single substituted HH2 peptide (VQLRIRVGVIRA-NH2)”, in assay [1], the “Fold change in IL1β relative to no peptide LPS stimulated cells” value was found to be 1.02 and the “IL1β Production” value stood at 1344 pg/mL. Further, the “% Biofilm inhibition” value in assay [2] was found to be 54%. In assay [3], the “Fold increase” value came to 1.9 and the “MCP1” value stood at 157 pg/mL.

Consider “HH2-G9: single substituted HH2 peptide (VQLRIRVAGIRA-NH2)”, for which, in assay [1], the “Fold change in IL1β relative to no peptide LPS stimulated cells” value was 1.04 and the “IL1β Production” value is 1363 pg/mL. The “% Biofilm inhibition” value in assay [2] came out at 59%. Besides, in assay [3], the “Fold increase” value amounted to 3.0 and the “MCP1” value was determined as 342 pg/mL.

Consider “HH2-G10: single substituted HH2 peptide (VQLRIRVAVGRA-NH2)”, for which, in assay [1], the “Fold change in IL1β relative to no peptide LPS stimulated cells” value is 1.06 and the “IL1β Production” value amounted to 1391 pg/mL. Also, the “% Biofilm inhibition” value in assay [2] is 58%. Besides, in assay [3], the “Fold increase” value is listed as 72 and the “MCP1” value is 12063 pg/mL.

For “HH2-G11: single substituted HH2 peptide (VQLRIRVAVIGA-NH2)”, in assay [1], the “Fold change in IL1β relative to no peptide LPS stimulated cells” value is listed as 0.99 and the “IL1β Production” value is 1303 pg/mL. Besides, the “% Biofilm inhibition” value in assay [2] was 72%. In addition, in assay [3], the “Fold increase” value came to 2.0 and the “MCP1” value amounted to 177 pg/mL.

“HH2-G12: single substituted HH2 peptide (VQLRIRVAVIRG-NH2)”: in assay [1], the “Fold change in IL1β relative to no peptide LPS stimulated cells” value was 1.09 and the “IL1β Production” value turned out to be 1433 pg/mL. For the same substance, in assay [2], the “% Biofilm inhibition” value came out at 69%. For the same substance, in assay [3], the “Fold increase” value turned out to be 68 and the “MCP1” value is 11442 pg/mL.

For the substance “HH2-I1: single substituted HH2 peptide (IQLRIRVAVIRA-NH2)”, in assay [1], the “Fold change in IL1β relative to no peptide LPS stimulated cells” value was found to be 0.84 and the “IL1β Production” value is 1103 pg/mL. The “% Biofilm inhibition” value in assay [2] was determined as 73%. Further, in assay [3], the “Fold increase” value was 51 and the “MCP1” value was 8573 pg/mL.

Source of the values: patent publication US20190315823A1, “SMALL CATIONIC ANTI-BIOFILM AND IDR PEPTIDES” (priority 2013, published 2019).
